{
  "source": "patent US5541174A",
  "about": "“Analgesic method” (priority 1995, dated 1996)",
  "key": {"[1]": {"tested_on": "acetic acid induced writhing in mice", "experiment": "Acetic acid-induced writhing test", "type": "in vivo, ICR male mice", "experimental": "1. Acetic acid-induced writhing test as described in Koster et al., \"Acetic Acid for Analgesic Screening\", Fed. Proc. 18, 412 (1959), incorporated by reference herein; and\nGroups of 10 ICR male mice (Taisho Pharmaceutical Co. Research Center) were used to study each dose of every compound. Ligands or complexes were administered orally or subcutaneously in 0.1 ml of vehicle per 10 g of body weight 30 minutes before the intrapertioneal injection of 0.1 ml of 0.7% acetic acid solution per 10 g of body weight. Number of writhes were counted for each mouse during a period of 10 to 20 min after acetic acid injection. Inhibitory percent was calculated by comparison with the number of writhes in the non-treated control, vehicle-treated, and acetic acid-injected group. The ED50 value and 95% confidence limits were calculated from the inhibitory percent by the method of Litchfield and Wilcoxon."}, "[2]": {"tested_on": "adjuvant-induced arthritic pain in rats", "experiment": "Adjuvant-induced arthritic pain", "type": "in vivo, male Sprague-Dawley rats", "from_the_text": "2. Adjuvant-induced arthritic pain as described in:\nS. KUZNA, et al., Measurement of Arthritic Pain and Effects of Analgesics in the Adjuvant-Treated Rat, Chem. Pharm. Bull. 23, 1184-1191 (1975);\nC. A. WINTER, et al., Analgesic Activity of Diflunisal in Rats with Hyperalygesia Induced by Freud's Adjuvant, J. Pharmacol. Exp. Ther. 211, 678-685 (1979; and\nM. E. ROSENTHALE, et al., Adjuvant Arthritis:Immuno-Pathological and Hyperalgesic Features, Fed. Proced. 41, 2577-2582 (1982),\nincorporated by reference herein.\nGroups of 5-6 male Sprague-Dawley rats (Taisho Pharmaceutical Co. Research Center) weighing 140 to 160 g at the time of Mycobacterium butyricum (adjuvant, Difco Laboratories, Detroit, Mich.) injection were used to study each compound. Rats were injected intradermally at the base of the tail with 0.1 ml of a parafin oil suspension of 0.5 mg of heat-killed mycobacterium. Fifteen to 19 days later, drugs were administered orally or subcutaneously in 0.5 ml of vehicle per 100 g of body weight to rats showing the nociceptive reaction, vocalization following a gentle flexion of the tarsal-tibial joint of the inflamed hind-paw. Vocalization responses were measured every hour for 5 hours. […] The ED50 value and 95% confidence limits were calculated from the positive rate for non-treated controls, vehicle-treated adjuvant arthritic rats, by the method of Litchfield and Wilcoxin.\nAll drugs were suspended with 5% gum arabic in saline solution or wetted with enough propylene glycol to give a final concentration of 4% propylene glycol and the wetted solid suspended in 1.4% polyvinyl alcohol in saline."}, "[3]": {"settings": "oral, 5% gum arabic, 0.06 mmol/kg"}, "[4]": {"settings": "oral, 5% gum arabic, 0.12 mmol/kg"}, "[5]": {"settings": "oral, 5% gum arabic, 0.24 mmol/kg"}, "[6]": {"settings": "oral, 5% gum arabic, 0.42 mmol/kg"}, "[7]": {"settings": "oral, 5% gum arabic, 0.04 mmol/kg"}, "[8]": {"settings": "oral, 5% gum arabic, 0.08 mmol/kg"}, "[9]": {"settings": "oral, 5% gum arabic, 1.46 mmol/kg"}},
  "data": [
    {"compound": "Tetra(.eta.-acetylsalicylato)biscopper(II) [Cu(II)2 (aspirinate)4]", "values": [
      {"measurement": "ED50", "setting": "[1]; oral, 5% gum arabic in saline", "value": "> 0.24", "unit": "mmol/kg"},
      {"measurement": "analgesic effectiveness versus parent ligand", "setting": "[1]; oral, 5% gum arabic in saline", "value": "more effective than their parent ligands"},
      {"measurement": "% Inhibition", "setting": "[1]; [3]", "value": 37, "unit": "%"},
      {"measurement": "% Inhibition", "setting": "[1]; [4]", "value": 38, "unit": "%"},
      {"measurement": "% Inhibition", "setting": "[1]; [5]", "value": 33, "unit": "%"},
      {"measurement": "analgesic effectiveness versus parent ligand", "setting": "[1]; oral, PG-PVA", "value": "more effective than their parent ligands"},
      {"measurement": "ED50", "setting": "[1]; oral, PG-PVA in saline", "value": 0.14, "unit": "mmol/kg"},
      {"measurement": "% Inhibition", "setting": "[1]; oral, PG-PVA, 0.09 mmol/kg", "value": 32, "unit": "%"},
      {"measurement": "% Inhibition", "setting": "[1]; oral, PG-PVA, 0.18 mmol/kg", "value": 59, "unit": "%"},
      {"measurement": "% Inhibition", "setting": "[1]; oral, PG-PVA, 0.36 mmol/kg", "value": 80, "unit": "%"},
      {"measurement": "ED50", "setting": "[1]; s.c., PG-PVA in saline", "value": 0.04, "unit": "mmol/kg"},
      {"measurement": "% Inhibition", "setting": "[1]; s.c., PG-PVA, 0.03 mmol/kg", "value": 36, "unit": "%"},
      {"measurement": "% Inhibition", "setting": "[1]; s.c., PG-PVA, 0.06 mmol/kg", "value": 59, "unit": "%"},
      {"measurement": "% Inhibition", "setting": "[1]; s.c., PG-PVA, 0.24 mmol/kg", "value": 82, "unit": "%"},
      {"measurement": "analgesic effectiveness versus parent ligand", "setting": "[2]; oral, 5% gum arabic", "value": "more effective than their parent ligand"},
      {"measurement": "ED50", "setting": "[2]; oral, 5% gum arabic in saline", "value": 0.29, "unit": "mmol/kg"},
      {"measurement": "% Inhibition", "setting": "[2]; [3]", "value": 7, "unit": "%"},
      {"measurement": "% Inhibition", "setting": "[2]; [4]", "value": 17, "unit": "%"},
      {"measurement": "% Inhibition", "setting": "[2]; [5]", "value": 43, "unit": "%"},
      {"measurement": "ED50", "setting": "[2]; oral, PG-PVA in saline", "value": 0.09, "unit": "mmol/kg"},
      {"measurement": "% Inhibition", "setting": "[2]; oral, PG-PVA, 0.03 mmol/kg", "value": 13, "unit": "%"},
      {"measurement": "% Inhibition", "setting": "[2]; oral, PG-PVA, 0.06 mmol/kg", "value": 30, "unit": "%"},
      {"measurement": "% Inhibition", "setting": "[2]; oral, PG-PVA, 0.12 mmol/kg", "value": 60, "unit": "%"},
      {"measurement": "ED50", "setting": "[2]; s.c., PG-PVA in saline", "value": 0.06, "unit": "mmol/kg"},
      {"measurement": "% Inhibition", "setting": "[2]; s.c., PG-PVA, 0.03 mmol/kg", "value": 23, "unit": "%"},
      {"measurement": "% Inhibition", "setting": "[2]; s.c., PG-PVA, 0.06 mmol/kg", "value": 50, "unit": "%"},
      {"measurement": "% Inhibition", "setting": "[2]; s.c., PG-PVA, 0.12 mmol/kg", "value": 73, "unit": "%"}
    ]},
    {"compound": "C[C@H](N)C(=O)[O-].C[C@H](N)C(=O)[O-].[Cu+2]", "note": "[Cu(II)(L-alaninate)2]", "values": [
      {"measurement": "activity versus other copper complexes and parent ligand", "setting": "[1]; Table VI", "value": "less active than the other copper complexes"},
      {"measurement": "ED50", "setting": "[1]; oral, 5% gum arabic in saline", "value": 0.92, "unit": "mmol/kg"},
      {"measurement": "% Inhibition", "setting": "[1]; [6]", "value": 22, "unit": "%"},
      {"measurement": "% Inhibition", "setting": "[1]; oral, 5% gum arabic, 0.83 mmol/kg", "value": 48, "unit": "%"},
      {"measurement": "% Inhibition", "setting": "[1]; oral, 5% gum arabic, 1.67 mmol/kg", "value": 71, "unit": "%"},
      {"measurement": "ED50", "setting": "[2]; oral, 5% gum arabic in saline", "value": "> 0.42", "unit": "mmol/kg"},
      {"measurement": "% Inhibition", "setting": "[2]; [6]", "value": 0, "unit": "%"}
    ]},
    {"compound": "[2[3(trifluoromethyl)phenyl]aminonicotinato]2n -(aqua)n -copper(II)n [Cu(II)2 (niflumate)4]", "values": [
      {"measurement": "ED50", "setting": "[1]; oral, 5% gum arabic in saline", "value": 0.09, "unit": "mmol/kg"},
      {"measurement": "analgesic effectiveness versus parent ligand", "setting": "[1]; oral, 5% gum arabic in saline", "value": "more effective than their parent ligands"},
      {"measurement": "% Inhibition", "setting": "[1]; [7]", "value": 37, "unit": "%"},
      {"measurement": "% Inhibition", "setting": "[1]; [8]", "value": 48, "unit": "%"},
      {"measurement": "analgesic effectiveness versus parent ligand", "setting": "[1]; oral, PG-PVA", "value": "more effective than their parent ligands"},
      {"measurement": "ED50", "setting": "[1]; oral, PG-PVA in saline", "value": 0.10, "unit": "mmol/kg"},
      {"measurement": "% Inhibition", "setting": "[1]; oral, PG-PVA, 0.06 mmol/kg", "value": 33, "unit": "%"},
      {"measurement": "% Inhibition", "setting": "[1]; oral, PG-PVA, 0.12 mmol/kg", "value": 57, "unit": "%"},
      {"measurement": "% Inhibition", "setting": "[1]; oral, PG-PVA, 0.24 mmol/kg", "value": 73, "unit": "%"},
      {"measurement": "ED50", "setting": "[1]; s.c., PG-PVA in saline", "value": 0.02, "unit": "mmol/kg"},
      {"measurement": "% Inhibition", "setting": "[1]; s.c., PG-PVA, 0.01 mmol/kg", "value": 37, "unit": "%"},
      {"measurement": "% Inhibition", "setting": "[1]; s.c., PG-PVA, 0.02 mmol/kg", "value": 48, "unit": "%"},
      {"measurement": "% Inhibition", "setting": "[1]; s.c., PG-PVA, 0.04 mmol/kg", "value": 58, "unit": "%"},
      {"measurement": "analgesic effectiveness versus parent ligand", "setting": "[2]; oral, 5% gum arabic", "value": "more effective than their parent ligand"},
      {"measurement": "ED50", "setting": "[2]; oral, 5% gum arabic in saline", "value": 0.18, "unit": "mmol/kg"},
      {"measurement": "% Inhibition", "setting": "[2]; [7]", "value": 7, "unit": "%"},
      {"measurement": "% Inhibition", "setting": "[2]; [8]", "value": 13, "unit": "%"},
      {"measurement": "ED50", "setting": "[2]; oral, PG-PVA in saline", "value": "> 0.16", "unit": "mmol/kg"},
      {"measurement": "ED50", "setting": "[2]; s.c., PG-PVA in saline", "value": 0.03, "unit": "mmol/kg"},
      {"measurement": "% Inhibition", "setting": "[2]; s.c., PG-PVA, 0.01 mmol/kg", "value": 17, "unit": "%"},
      {"measurement": "% Inhibition", "setting": "[2]; s.c., PG-PVA, 0.02 mmol/kg", "value": 50, "unit": "%"},
      {"measurement": "% Inhibition", "setting": "[2]; s.c., PG-PVA, 0.04 mmol/kg", "value": 60, "unit": "%"}
    ]},
    {"compound": "Nc1ccccc1C(=O)O", "note": "[Anthranilic acid, reference compound]", "values": [
      {"measurement": "ED50", "setting": "[1]; oral, 5% gum arabic in saline", "value": "> 1.46", "unit": "mmol/kg"},
      {"measurement": "% Inhibition", "setting": "[1]; [9]", "value": 18, "unit": "%"},
      {"measurement": "ED50", "setting": "[1]; oral, PG-PVA in saline", "value": "> 2.19", "unit": "mmol/kg"},
      {"measurement": "% Inhibition", "setting": "[1]; oral, PG-PVA, 2.19 mmol/kg", "value": 45, "unit": "%"},
      {"measurement": "ED50", "setting": "[1]; s.c., PG-PVA in saline", "value": 0.64, "unit": "mmol/kg"},
      {"measurement": "% Inhibition", "setting": "[1]; s.c., PG-PVA, 0.27 mmol/kg", "value": 30, "unit": "%"},
      {"measurement": "% Inhibition", "setting": "[1]; s.c., PG-PVA, 0.55 mmol/kg", "value": 36, "unit": "%"},
      {"measurement": "% Inhibition", "setting": "[1]; s.c., PG-PVA, 1.09 mmol/kg", "value": 71, "unit": "%"},
      {"measurement": "ED50", "setting": "[2]; oral, 5% gum arabic in saline", "value": 0.83, "unit": "mmol/kg"},
      {"measurement": "% Inhibition", "setting": "[2]; oral, 5% gum arabic, 0.36 mmol/kg", "value": 23, "unit": "%"},
      {"measurement": "% Inhibition", "setting": "[2]; oral, 5% gum arabic, 0.73 mmol/kg", "value": 41, "unit": "%"},
      {"measurement": "% Inhibition", "setting": "[2]; [9]", "value": 73, "unit": "%"},
      {"measurement": "ED50", "setting": "[2]; oral, PG-PVA in saline", "value": "> 1.44", "unit": "mmol/kg"},
      {"measurement": "% Inhibition", "setting": "[2]; oral, PG-PVA, 1.46 mmol/kg", "value": 37, "unit": "%"}
    ]}
  ]
}
